In PubChem BioAssay (NCI):
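96-well plates; 48 h exposure; 5 concentrations. Endpoints by linear interpolation between flanking doses. Not reached: highest tested concentration assigned. GI50 is the concentration that inhibits growth by half. At the TGI there is no net growth.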

What was measured:
Test in all cases: NCI-60 cell line screen, 48 h
ACHN renal = system: ACHN renal
HCT-116 colon = system: HCT-116 colon
HL-60(TB) leukemia = system: HL-60(TB) leukemia
MOLT-4 leukemia = system: MOLT-4 leukemia
NCI-H23 lung = system: NCI-H23 lung
NCI-H522 lung = system: NCI-H522 lung
RPMI-8226 leukemia = system: RPMI-8226 leukemia
SW-620 colon = system: SW-620 colon
SR leukemia = system: SR leukemia

CC(=O)[CH-]C(=O)c1ccccc1.CC(=O)[CH-]C(=O)c1ccccc1.CC[O-].CC[O-].[Hf+4]
GI50 (ACHN renal): > 100 µM | TGI (ACHN renal): > 100 µM | GI50 (HCT-116 colon): > 100 µM | TGI (HCT-116 colon): > 100 µM | GI50 (HL-60(TB) leukemia): > 100 µM | TGI (HL-60(TB) leukemia): > 100 µM | GI50 (MOLT-4 leukemia): > 100 µM | TGI (MOLT-4 leukemia): > 100 µM | GI50 (NCI-H23 lung): > 100 µM | TGI (NCI-H23 lung): > 100 µM | GI50 (NCI-H522 lung): > 100 µM | TGI (NCI-H522 lung): > 100 µM | GI50 (RPMI-8226 leukemia): > 100 µM | TGI (RPMI-8226 leukemia): > 100 µM | GI50 (SW-620 colon): > 100 µM | TGI (SW-620 colon): > 100 µM

Cc1nc(Nc2ccccc2)sc1C(=O)CC(=O)C(=O)Nc1c(C(C)C)cccc1C(C)C
TGI (ACHN renal): > 100 µM | TGI (HCT-116 colon): > 100 µM | TGI (HL-60(TB) leukemia): > 100 µM | TGI (MOLT-4 leukemia): > 100 µM | TGI (NCI-H23 lung): > 100 µM | TGI (NCI-H522 lung): > 100 µM | TGI (SR leukemia): > 100 µM | TGI (SW-620 colon): > 100 µM

NNC(=O)C1CCC(=O)N1S(=O)(=O)c1ccccc1 (stereo not given)
TGI (ACHN renal): > 100 µM | TGI (HCT-116 colon): > 100 µM | TGI (HL-60(TB) leukemia): > 100 µM | TGI (MOLT-4 leukemia): > 100 µM | TGI (NCI-H23 lung): > 100 µM | TGI (NCI-H522 lung): > 100 µM | TGI (RPMI-8226 leukemia): > 100 µM | TGI (SR leukemia): > 100 µM | TGI (SW-620 colon): > 100 µM

CN(C(=O)C12C3C4C1C1C2C3C41C(N)=O)C(C)(C)C (stereo not given)
TGI (ACHN renal): > 100 µM | TGI (HCT-116 colon): > 100 µM | TGI (HL-60(TB) leukemia): > 100 µM | TGI (MOLT-4 leukemia): > 100 µM | TGI (NCI-H23 lung): > 100 µM | TGI (NCI-H522 lung): > 100 µM | TGI (SR leukemia): > 100 µM | TGI (SW-620 colon): > 100 µM

N/N=C(/C(=O)Nc1cccc(Cl)c1)C(C(=O)c1ccc(O)cc1O)C1OC(=O)c2ccccc21 (stereo not given)
TGI (ACHN renal): > 100 µM | TGI (HCT-116 colon): > 100 µM | TGI (HL-60(TB) leukemia): > 100 µM | TGI (MOLT-4 leukemia): > 100 µM | TGI (NCI-H23 lung): > 100 µM | TGI (NCI-H522 lung): > 100 µM | TGI (RPMI-8226 leukemia): > 100 µM | TGI (SR leukemia): > 100 µM | TGI (SW-620 colon): > 100 µM

O=[N+]([O-])c1ccc(-n2nnc(C3=NCCN3)c2-c2ccccc2)cc1
TGI (ACHN renal): > 100 µM | TGI (HCT-116 colon): > 100 µM | TGI (HL-60(TB) leukemia): > 100 µM | TGI (MOLT-4 leukemia): > 100 µM | TGI (NCI-H23 lung): > 100 µM | TGI (NCI-H522 lung): > 100 µM | TGI (RPMI-8226 leukemia): > 100 µM | TGI (SR leukemia): > 100 µM | TGI (SW-620 colon): > 100 µM

C=C/C=C/NC(=O)OCc1ccccc1
TGI (ACHN renal): > 100 µM | TGI (HCT-116 colon): > 100 µM | TGI (HL-60(TB) leukemia): > 100 µM | TGI (MOLT-4 leukemia): > 100 µM | TGI (NCI-H522 lung): > 100 µM | TGI (RPMI-8226 leukemia): > 100 µM | TGI (SR leukemia): > 100 µM | TGI (SW-620 colon): > 100 µM

CCOC(=O)CC[C@H](NC(=O)c1nc[nH]c1[N+](=O)[O-])C(=O)OCC
TGI (ACHN renal): > 100 µM | TGI (HCT-116 colon): > 100 µM | TGI (HL-60(TB) leukemia): > 100 µM | TGI (MOLT-4 leukemia): > 100 µM | TGI (NCI-H23 lung): > 100 µM | TGI (NCI-H522 lung): > 100 µM | TGI (RPMI-8226 leukemia): > 100 µM | TGI (SR leukemia): > 100 µM

O=C(O)CC[C@H](NC(=O)c1ccc(-n2nc3ccc(O)cc3nc2=O)cc1)C(=O)O
TGI (ACHN renal): > 100 µM | TGI (HCT-116 colon): > 100 µM | TGI (HL-60(TB) leukemia): > 100 µM | TGI (MOLT-4 leukemia): > 100 µM | TGI (NCI-H23 lung): > 100 µM | TGI (NCI-H522 lung): > 100 µM | TGI (RPMI-8226 leukemia): > 100 µM | TGI (SR leukemia): > 100 µM | TGI (SW-620 colon): > 100 µM

CC(CN(C)C)/C(=N\Nc1ccccc1)c1ccccc1 (stereo not given)
TGI (ACHN renal): 2.08 µM | TGI (HCT-116 colon): > 100 µM | TGI (HL-60(TB) leukemia): 8.34 µM | TGI (MOLT-4 leukemia): 14 µM | TGI (NCI-H23 lung): 23.4 µM | TGI (NCI-H522 lung): 25.1 µM | TGI (RPMI-8226 leukemia): 67.6 µM | TGI (SR leukemia): 23.1 µM | TGI (SW-620 colon): > 100 µM

O=C1C(c2ccccc2)=C(O)c2cccc3cccc1c23
TGI (ACHN renal): > 100 µM | TGI (HCT-116 colon): > 100 µM | TGI (HL-60(TB) leukemia): > 100 µM | TGI (MOLT-4 leukemia): > 100 µM | TGI (NCI-H23 lung): > 100 µM | TGI (NCI-H522 lung): > 100 µM | TGI (RPMI-8226 leukemia): > 100 µM | TGI (SR leukemia): > 100 µM | TGI (SW-620 colon): > 100 µM

OC(CCNC12CC3CC(CC(C3)C1)C2)c1ccccc1 (stereo not given)
TGI (ACHN renal): > 100 µM | TGI (HCT-116 colon): > 100 µM | TGI (HL-60(TB) leukemia): > 100 µM | TGI (MOLT-4 leukemia): > 100 µM | TGI (NCI-H23 lung): > 100 µM | TGI (NCI-H522 lung): > 100 µM | TGI (SW-620 colon): > 100 µM

CCOc1cc2c(C(=O)CC)c(O)ccc2o1
TGI (ACHN renal): > 100 µM | TGI (HCT-116 colon): > 72.5 µM | TGI (HL-60(TB) leukemia): 23 µM | TGI (MOLT-4 leukemia): > 100 µM | TGI (NCI-H23 lung): > 100 µM | TGI (NCI-H522 lung): > 100 µM | TGI (RPMI-8226 leukemia): > 100 µM | TGI (SR leukemia): > 100 µM | TGI (SW-620 colon): > 100 µM

O=C(c1ccc(Cl)cc1Cl)C1[C@H]2C(=O)N(c3ccc(Cc4ccc(N5C(=O)[C@@H]6ON(c7ccccc7)C(C(=O)c7ccc(Cl)cc7Cl)[C@@H]6C5=O)cc4)cc3)C(=O)[C@H]2ON1c1ccccc1 (stereo not given in full)
TGI (ACHN renal): > 50 µM | TGI (HCT-116 colon): > 50 µM | TGI (HL-60(TB) leukemia): > 50 µM | TGI (MOLT-4 leukemia): > 50 µM | TGI (NCI-H23 lung): > 50 µM | TGI (NCI-H522 lung): > 50 µM | TGI (RPMI-8226 leukemia): > 50 µM | TGI (SR leukemia): > 50 µM | TGI (SW-620 colon): > 50 µM

COc1cc2c[n+](C)c3c4cc(OC)c(OC(C)C)cc4ccc3c2cc1OC
TGI (ACHN renal): > 100 µM | TGI (HCT-116 colon): > 100 µM | TGI (HL-60(TB) leukemia): 91.9 µM | TGI (MOLT-4 leukemia): > 100 µM | TGI (NCI-H23 lung): > 100 µM | TGI (NCI-H522 lung): 69.3 µM | TGI (RPMI-8226 leukemia): > 100 µM | TGI (SR leukemia): > 100 µM | TGI (SW-620 colon): > 100 µM

C=C1CC2OC(=O)C(=C)C2C(O)C2C(=C)CCC12 (stereo not given)
TGI (ACHN renal): 21.2 µM | TGI (HCT-116 colon): 14.5 µM | TGI (HL-60(TB) leukemia): 6.32 µM | TGI (MOLT-4 leukemia): 11 µM | TGI (NCI-H23 lung): 27 µM | TGI (RPMI-8226 leukemia): 14.3 µM | TGI (SR leukemia): 14 µM | TGI (SW-620 colon): 13.8 µM

CCOC(C[C@H](O[Si](C)(C)C(C)(C)C)[C@H]1COC(=S)S1)OCC
TGI (ACHN renal): > 100 µM | TGI (HCT-116 colon): > 100 µM | TGI (HL-60(TB) leukemia): > 100 µM | TGI (MOLT-4 leukemia): > 100 µM | TGI (NCI-H23 lung): > 100 µM | TGI (NCI-H522 lung): 55.6 µM | TGI (RPMI-8226 leukemia): > 100 µM | TGI (SR leukemia): > 100 µM | TGI (SW-620 colon): > 100 µM

COC(C(=O)NN)c1ccccc1 (stereo not given)
TGI (ACHN renal): > 100 µM | TGI (MOLT-4 leukemia): > 100 µM | TGI (NCI-H23 lung): > 100 µM | TGI (NCI-H522 lung): > 100 µM | TGI (RPMI-8226 leukemia): > 100 µM | TGI (SR leukemia): > 100 µM | TGI (SW-620 colon): > 100 µM
